Test results from EP2842965A1, “Neuromedin U analogs comprising serum albumin binding amino acid residue” (Gubra ApS, priority 2013, dated 2015).
Starred links: 1 amine or outer side, 2 acyl side, 3 side chain; linkers in the order of their positions; H or OH if unused. Residues, ends and D or L forms follow the SMILES beside them. Groups on a side chain read outwards from the residue. *: point of attachment. γGlu = O=C(O)[C@H](CCC(=O)[*:2])N[*:1]; Palmitoyl = CCCCCCCCCCCCCCCC(=O)*

Assay: In vivo acute/dose response study of food intake in the HM2 system after SC dosing
Conditions: 6 hours post dosing, male NMRI mice
Description: Animals: A total of seventy two (72) male NMRI mice 6-7 weeks old (approx. 25 g BW) at the time of arrival were obtained from Taconic (Denmark) and transferred to the Gubra test stables. Upon arrival the animals will be transferred into the HM2 cages and housed in groups of four. The animal room environment were controlled (targeted ranges: temperature 22 ± 2°C; relative humidity 50 ± 10%; light/dark cycle: 12 hours light, 12 hours dark, lights on from 6 AM to 6 PM. […] have ad libitum access to Altromin (Brogaarden, Denmark) and tap water.
Run-in period: Mice arrived at day -7. A minimum of 5-7 days of habituation to the system was allowed before study start. During these days, animals were handled daily to accustom them to the experimental paradigm.
Runs in the HM2 system: In total five runs were performed in the HM2 system. There were at least 4 days of washout between each run.
Acute effect of lipidated analogues: Mice were re-randomized and the acute effects of the lipidated compounds were tested in an acute setting. Mice were dosed in doses equimolar to the concentration of NMU found to be semi-efficacious.
Dose response study: Different doses of the analogues were tested in order to establish a dose response relationship. Mice were re-randomized and four different doses of the five lipidated analogues were tested over two different runs in the HM2 system and compared with NMU at […] and liraglutide at 0.05 µmol/kg.
Randomization and experimentation: Animals were randomized according to body weight the day of dosing and stratified into the following experimental groups based on mean cage weight (n=4-8): • Pilot (PD) study run 1 (dose finding of NMU): • 1: Vehicle (0.9% NaCl, pH ∼ 4.0 and 0.1% BSA) (n=4) • 2: Native human Neuromedin U (NMU-25), sc, 1 mg/kg (n=4) • 3: Native human Neuromedin U (NMU-25), sc, 3 mg/kg (n=4) • 4: Native human Neuromedin U (NMU-25), sc, 10 mg/kg (n=4) • 5: PYY3-36, sc 1 mg/kg (n=4) • Pilot (PD) study run 2 (dose finding of NMU): • 1: Vehicle (0.9% NaCl, pH ∼ 4.0 and 0.1% BSA) (n=4) • 2: Native human Neuromedin U (NMU-25), sc, 1 mg/kg (n=4) • 3: Native human Neuromedin U (NMU-25), sc, 3 mg/kg (n=4) • Acute effects of lipidated analogues: • 1: Vehicle (PBS + 0.1% BSA+ 5.4% DMSO) SC • 2: Liraglutide 0.2 mg/kg, sc, 0.05 pmol/kg (n=8) • 3: Human neuromedin U 25 (NMU), sc, 1 µmol/kg (n=8) • 5: SEQ ID NO 17, sc, 1 pmol/kg (n=8) • 6: SEQ ID NO 14, sc, 1 pmol/kg (n=8) • 7: SEQ ID NO 11, sc, 1 pmol/kg (n=8) • 8: SEQ ID NO 8, sc, 1 pmol/kg (n=8) • 9: SEQ ID NO 5, sc, 1 pmol/kg (n=8) • Dose response study run 1 • 1: Vehicle (0.9% NaCl, pH ∼ 4.1 and 0.1% BSA) (n=6) • 2: Liraglutide 0.2 mg/kg, sc, 0.05 pmol/kg (n=4) • 3: Human neuromedin U 25 (NMU), sc, 1 µmol/kg (n=5) • 8: SEQ ID NO 17, sc, 1 pmol/kg (n=4) • 9: SEQ ID NO 17, sc, 0.3 pmol/kg (n=5) • 10: SEQ ID NO 17, sc, 0.1 µmol/kg (n=5) • 11: SEQ ID NO 17, sc, 0.03 pmol/kg (n=5) • 12: SEQ ID NO 14, sc, 1 pmol/kg (n=4) • 13: SEQ ID NO 14, sc, 0.3 pmol/kg (n=5) • 14: SEQ ID NO 14, sc, 0.1 pmol/kg (n=5) • 15: SEQ ID NO 14, sc, 0.03 pmol/kg (n=5) • Dose response study run 2 • 1: Vehicle (0.9%NaCl, pH ∼ 4.0 and 0.1% BSA) (n=5) • 2: Liraglutide 0.2 mg/kg, sc, 0.05 pmol/kg (n=4) • 3: Human neuromedin U 25 (NMU), sc, 1 µmol/kg (n=4) • 4: SEQ ID NO 11, sc, 1 pmol/kg (n=4) • 5: SEQ ID NO 11, sc, 0.3 pmol/kg (n=5) • 6: SEQ ID NO 11, sc, 0.1 pmol/kg (n=5) • 7: SEQ ID NO 11, sc, 0.03 pmol/kg (n=5) • 8: SEQ ID NO 8, sc, 1 pmol/kg (n=4) • 9: SEQ ID NO 8, sc, 0.3 pmol/kg (n=5) • 10: SEQ ID NO 8, sc, 0.1 pmol/kg (n=5) • 11: SEQ ID NO 8, sc, 0.03 pmol/kg (n=5) • 12: SEQ ID NO 5, sc, 1 pmol/kg (n=4) • 13: SEQ ID NO 5, sc, 0.3 pmol/kg (n=5) • 14: SEQ ID NO 5, sc, 0.1 µmol/kg (n=5) • 15: SEQ ID NO 5, sc, 0.03 pmol/kg (n=5) Dosing: All dosing took place just prior to lights out in the afternoon. Doses was administered subcutaneously (sc) (dose volume 10 ml/kg), alternating the injection site from the left to the right side of the lower back and inguinal region, respectively. […]

| SMILES | Percent food intake reduction 6 hours post SC dosing (0.03 µmol/kg) [%] | Percent food intake reduction 6 hours post SC dosing (0.1 µmol/kg) [%] | Percent food intake reduction 6 hours post SC dosing (0.3 µmol/kg) [%] | Percent food intake reduction 6 hours post SC dosing (1.0 µmol/kg) [%] |
| --- | --- | --- | --- | --- |
| CCCCCCCCCCCCCCCC(=O)N[C@@H](CCC(=O)NCCCC[C@H](NC(=O)[C@H](CCC(N)=O)NC(=O)[C@H](CO)NC(=O)[C@H](C)NC(=O)[C@H](Cc1ccccc1)NC(=O)[C@@H]1CCCN1C(=O)[C@H](CO)NC(=O)[C@H](CCC(N)=O)NC(=O)[C@H](Cc1ccccc1)NC(=O)[C@H](CCC(=O)O)NC(=O)[C@H](CCC(=O)O)NC(=O)[C@H](CC(=O)O)NC(=O)[C@@H](NC(=O)[C@H](CCCNC(=N)N)NC(=O)[C@@H](N)Cc1ccccc1)C(C)C)C(=O)N[C@@H](CCCNC(=N)N)C(=O)NCC(=O)N[C@@H](Cc1ccc(O)cc1)C(=O)N[C@@H](Cc1ccccc1)C(=O)N[C@@H](CC(C)C)C(=O)N[C@@H](Cc1ccccc1)C(=O)N[C@@H](CCCNC(=N)N)C(=O)N1CCC[C@H]1C(=O)N[C@@H](CCCNC(=N)N)C(=O)N[C@@H](CC(N)=O)C(N)=O)C(=O)O [SEQ ID NO 5] (H-FRVDEEFQSPFASQK([γGlu-Palmitoyl])RGYFLFRPRN-NH2) | 41 | 41 | 61 | 76 |
| CCCCCCCCCCCCCCCC(=O)N[C@@H](CCC(=O)NCCCC[C@H](NC(=O)[C@H](C)NC(=O)[C@H](Cc1ccccc1)NC(=O)[C@@H]1CCCN1C(=O)[C@H](CO)NC(=O)[C@H](CCC(N)=O)NC(=O)[C@H](Cc1ccccc1)NC(=O)[C@H](CCC(=O)O)NC(=O)[C@H](CCC(=O)O)NC(=O)[C@H](CC(=O)O)NC(=O)[C@@H](NC(=O)[C@H](CCCNC(=N)N)NC(=O)[C@@H](N)Cc1ccccc1)C(C)C)C(=O)N[C@@H](CCC(N)=O)C(=O)N[C@@H](CO)C(=O)N[C@@H](CCCNC(=N)N)C(=O)NCC(=O)N[C@@H](Cc1ccc(O)cc1)C(=O)N[C@@H](Cc1ccccc1)C(=O)N[C@@H](CC(C)C)C(=O)N[C@@H](Cc1ccccc1)C(=O)N[C@@H](CCCNC(=N)N)C(=O)N1CCC[C@H]1C(=O)N[C@@H](CCCNC(=N)N)C(=O)N[C@@H](CC(N)=O)C(N)=O)C(=O)O [SEQ ID NO 8] (H-FRVDEEFQSPFAK([γGlu-Palmitoyl])QSRGYFLFRPRN-NH2) | 25 | 55 | 46 | 90 |
| CCCCCCCCCCCCCCCC(=O)N[C@@H](CCC(=O)NCCCC[C@H](NC(=O)[C@H](CCC(=O)O)NC(=O)[C@H](CC(=O)O)NC(=O)[C@@H](NC(=O)[C@H](CCCNC(=N)N)NC(=O)[C@@H](N)Cc1ccccc1)C(C)C)C(=O)N[C@@H](Cc1ccccc1)C(=O)N[C@@H](CCC(N)=O)C(=O)N[C@@H](CO)C(=O)N1CCC[C@H]1C(=O)N[C@@H](Cc1ccccc1)C(=O)N[C@@H](C)C(=O)N[C@@H](CO)C(=O)N[C@@H](CCC(N)=O)C(=O)N[C@@H](CO)C(=O)N[C@@H](CCCNC(=N)N)C(=O)NCC(=O)N[C@@H](Cc1ccc(O)cc1)C(=O)N[C@@H](Cc1ccccc1)C(=O)N[C@@H](CC(C)C)C(=O)N[C@@H](Cc1ccccc1)C(=O)N[C@@H](CCCNC(=N)N)C(=O)N1CCC[C@H]1C(=O)N[C@@H](CCCNC(=N)N)C(=O)N[C@@H](CC(N)=O)C(N)=O)C(=O)O [SEQ ID NO 14] (H-FRVDEK([γGlu-Palmitoyl])FQSPFASQSRGYFLFRPRN-NH2) | 5 | 31 | 79 | 89 |
| CCCCCCCCCCCCCCCC(=O)N[C@@H](CCC(=O)NCCCC[C@H](NC(=O)[C@@H](NC(=O)[C@H](CCCNC(=N)N)NC(=O)[C@@H](N)Cc1ccccc1)C(C)C)C(=O)N[C@@H](CCC(=O)O)C(=O)N[C@@H](CCC(=O)O)C(=O)N[C@@H](Cc1ccccc1)C(=O)N[C@@H](CCC(N)=O)C(=O)N[C@@H](CO)C(=O)N1CCC[C@H]1C(=O)N[C@@H](Cc1ccccc1)C(=O)N[C@@H](C)C(=O)N[C@@H](CO)C(=O)N[C@@H](CCC(N)=O)C(=O)N[C@@H](CO)C(=O)N[C@@H](CCCNC(=N)N)C(=O)NCC(=O)N[C@@H](Cc1ccc(O)cc1)C(=O)N[C@@H](Cc1ccccc1)C(=O)N[C@@H](CC(C)C)C(=O)N[C@@H](Cc1ccccc1)C(=O)N[C@@H](CCCNC(=N)N)C(=O)N1CCC[C@H]1C(=O)N[C@@H](CCCNC(=N)N)C(=O)N[C@@H](CC(N)=O)C(N)=O)C(=O)O [SEQ ID NO 17] (H-FRVK([γGlu-Palmitoyl])EEFQSPFASQSRGYFLFRPRN-NH2) | 20 | 43 | 64 | 78 |
